Experimental data reported in article PMC2686105, “Role of the stage-regulated nucleoside transporter TbNT10 in differentiation and adenosine uptake in Trypanosoma brucei” (Molecular and Biochemical Parasitology, 2007).

Target: T1, TbNT10 (Trypanosoma brucei, UniProt Q38EK0)
T1 construct: gene Tb09.160.5480; endogenous in procyclic forms and re-expressed (addback clone A) from an EP procyclin locus in the TbNT10 null mutant
Experiment: 3H-adenosine uptake; wild type, null mutant and addback procyclic cells
Type: cell-based
Settings: procyclic forms; 5 min; labelled compound; transporter activity judged by null mutant versus addback

T1 sequence (Q38EK0 entry or part of it): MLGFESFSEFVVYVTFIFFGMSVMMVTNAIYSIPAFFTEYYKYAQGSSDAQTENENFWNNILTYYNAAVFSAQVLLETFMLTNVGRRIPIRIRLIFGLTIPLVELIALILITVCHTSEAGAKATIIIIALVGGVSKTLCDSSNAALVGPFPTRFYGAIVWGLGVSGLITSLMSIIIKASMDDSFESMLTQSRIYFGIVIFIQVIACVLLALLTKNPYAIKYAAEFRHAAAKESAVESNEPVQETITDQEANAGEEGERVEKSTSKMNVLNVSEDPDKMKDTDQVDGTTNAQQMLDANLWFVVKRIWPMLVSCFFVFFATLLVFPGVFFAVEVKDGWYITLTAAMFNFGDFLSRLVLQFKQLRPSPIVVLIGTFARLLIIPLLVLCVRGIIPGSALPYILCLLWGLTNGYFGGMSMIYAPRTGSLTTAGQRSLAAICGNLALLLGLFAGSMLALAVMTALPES

How did the “3H-adenosine uptake; wild type, null mutant and addback procyclic cells” value turn out when `Nc1ncnc2c1ncn2[C@@H]1O[C@H](CO)[C@@H](O)[C@H]1O` [adenosine] was run?
Its value is “it is the main transporter for adenosine in this life cycle stage”.
